Measured values reported in PMC4428071, “Structural basis for epitope masking and strain specificity of a conserved epitope in an intrinsically disordered malaria vaccine candidate” (Scientific Reports, 2015).
pKd: −log10 of the molar value.

Target: 6D8 scFv
Assay: Isothermal titration calorimetry (ITC) of MSP2 and peptides into 6D8 scFv
Type: binding, mouse
Conditions: ITC into 6D8 scFv; 20 mM sodium phosphate, 150 mM NaCl, pH 7.4, 25°C; scFv 20 µM, titrant from 200 µM stocks; error estimates from replicate titrations against 6D8 scFv and mAb (n = 3–5); limit of determinable affinities approx. 5 nM
Text: The interaction between 6D8 and MSP2, was examined further using isothermal titration calorimetry (ITC). […] Full-length recombinant MSP2 binds 6D8 scFv with lower affinity, permitting quantification by ITC. Even though 6D8 recognizes a fully conserved epitope in MSP2, the affinities of 6D8 scFv for full-length 3D7 and FC27 MSP2 differ by as much as 5-fold (Fig. 3C,D). To explore the basis of this strain-specificity, we synthesized peptides encompassing the minimal 6D8 epitope and extending C-terminally into the variable region. […] Identical affinities were observed when 6D8 IgG was used in place of the scFv (Fig. S4).
The affinity of 6D8 IgG and scFv for synthetic peptides and recombinant MSP2 was determined by ITC (Microcal ITC-200, GE Healthcare) and SPR (Biacore T200, GE Healthcare) using a Mouse Antibody Capture kit (GE Healthcare) (SI Materials and methods). Antibody binding to lipid-tethered MSP2 was assessed SPR using an L1 chip (GE Healthcare). Vesicles of POPC containing 1 mol % DOGS-NTA were adsorbed onto the chip, and loaded with Ni^2+ and then FC27 MSP2–6His. […]
MSP2 peptides were purified on a reverse-phase C18 column (Zorbax, 10 x 300 mm) using a linear gradient of 5 to 40% of solvent B (90% acetonitrile / 9.9% water / 0.1% TFA) against solvent A (0.1% TFA in water) over 40 min. The purity of MSP2 peptides was assessed by mass spectrometry (LC-MS). […]

## Ac-NAYNMSIRR-NH2 [MSP2_14-22]
  pKd: ~8.30
